According to paper PMC7311426, “An amphipathic peptide with antibiotic activity against multidrug-resistant Gram-negative bacteria” (Nature Communications, 2020):
≈ marks a conversion by molar mass, not a printed value. Read-outs that look alike come from different tables or passages of the source.

What was measured:
Experiment in all cases: microbe, parasite or virus in culture
[1] = test system: A. baumannii; settings: Acinetobacter baumannii, mode of 6 replicates
Method in brief: (§1)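 MICs were scored by eye after 18-20 h static incubation at 37 °C, with bacteria at 5 × 10^5 CFU mL^−1 in MHB. Peptides were serially diluted 2-fold over 12 points, top 128 or 64 μg mL^−1. CAMHB (CLSI) and 1% agarose-MHB variants were also run, at least six replicates.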

[2] = test system: E. coli; settings: Escherichia coli
Method in brief: as §1

[3] = test system: K. pneumoniae; settings: Klebsiella pneumoniae
Method in brief: as §1

[4] = test system: P. aeruginosa; settings: Pseudomonas aeruginosa
Method in brief: as §1

C[C@@H](O)[C@H]1C(=O)N2C(C(=O)O)=C(S[C@@H]3CN[C@H](C(=O)N(C)C)C3)[C@H](C)[C@H]12 [Meropenem, meropenem, reference compound]
MIC ([1]; ATCC19636, read-out: BMD MIC, A. baumannii ATCC 19636 type strain, CAMHB): 1 mg/L (≈ 2.61 µM)
MIC ([1]; ATCC19636, read-out: BMD MIC, A. baumannii ATCC 19636 type strain, MHB): 0.5 mg/L (≈ 1.3 µM)
MIC ([1]; read-out: BMD MIC, A. baumannii Greece CI, XDR, PmxR, MHB): > 16 mg/L
MIC ([2]; ATCC25922, read-out: BMD MIC, E. coli ATCC 25922 FDA control strain, CAMHB, mode of 6 replicates): ≤ 0.06 mg/L
MIC ([2]; ATCC25922, read-out: BMD MIC, E. coli ATCC 25922 FDA control strain, MHB, mode of 6 independent biological replicates): 0.015 mg/L (≈ 0.0391 µM)
MIC ([2]; ATCC700926 / MG1655, read-out: BMD MIC): ≤ 0.03 mg/L
MIC ([2]; ATCC700928, read-out: BMD MIC, E. coli ATCC 700928 CFT073 UPEC, CAMHB, mode of 6 replicates): ≤ 0.25 mg/L
MIC ([2]; read-out: BMD MIC): ≤ 0.25 mg/L
MIC ([2]; read-out: MIC against E. coli AID#172 MDR clinical isolate, BMD): 0.125 mg/L (≈ 0.326 µM)
MIC ([2]; read-out: MIC against ESBL producing E. coli DSA 443, BMD): 0.032 mg/L (≈ 0.0834 µM)
MIC ([2]; read-out: MIC, broth microdilution, E. coli AUD172 parent strain not exposed to drug): 0.015 mg/L (≈ 0.0391 µM)
MIC ([2]; read-out: MIC, broth microdilution, E. coli AUD172 spontaneous mutant, AA139 selection 4X, plate 2, colony 2, drug-free passage 1): 0.015 mg/L (≈ 0.0391 µM)
MIC ([2]; read-out: MIC, broth microdilution, E. coli AUD172 spontaneous mutant, AA139 selection 4X, plate 2, colony 2, drug-free passage 5): 0.03 mg/L (≈ 0.0782 µM)
MIC ([3]; ATCC13883, read-out: BMD MIC, K. pneumoniae ATCC 13883 type strain (polymyxin/colistin heteroresistant), MHB, mode of 6 replicates): ≤ 0.25 mg/L
MIC ([3]; ATCC700603, read-out: BMD MIC, K. pneumoniae ATCC 700603 (K6), MDR, OXA-2/SHV-18, CAMHB, mode of 6 replicates): 0.06 mg/L (≈ 0.156 µM)
MIC ([3]; ATCC700603, read-out: BMD MIC, K. pneumoniae ATCC 700603 (K6), MDR, OXA-2/SHV-18, MHB, mode of 6 replicates): ≤ 0.25 mg/L
MIC ([3]; BAA2146, read-out: BMD MIC, K. pneumoniae BAA-2146, MDR, ESBL, NDM-1 pos, MHB, mode of 6 replicates): > 32 mg/L
MIC ([3]; read-out: BMD MIC, K. pneumoniae Greece CI 8_GR_13, XDR, KPC-2, PmxR, MHB, mode of 6 replicates): > 32 mg/L
MIC ([3]; read-out: MIC, broth microdilution, K. pneumoniae 3010 spontaneous mutant, AA139 selection 4X, plate 1, colony 1, drug-free passage 1): 0.03 mg/L (≈ 0.0782 µM)
MIC ([3]; read-out: MIC, broth microdilution, K. pneumoniae 3010 spontaneous mutant, AA139 selection 4X, plate 1, colony 1, drug-free passage 5): 0.015 mg/L (≈ 0.0391 µM)
MIC ([3]; read-out: MIC, broth microdilution, K. pneumoniae 3010 spontaneous mutant, AA139 selection 8X, plate 1, colony 1, drug-free passage 1): 0.03 mg/L (≈ 0.0782 µM)
MIC ([3]; read-out: MIC, broth microdilution, K. pneumoniae 3010 spontaneous mutant, AA139 selection 8X, plate 1, colony 1, drug-free passage 5): 0.03 mg/L (≈ 0.0782 µM)
MIC ([3]; read-out: MIC, broth microdilution, K. pneumoniae ST258 spontaneous mutant, AA139 selection 4X, plate 1, colony 1, drug-free passage 1): > 4 mg/L
MIC ([3]; read-out: MIC, broth microdilution, K. pneumoniae ST258 spontaneous mutant, AA139 selection 4X, plate 1, colony 1, drug-free passage 5): > 4 mg/L
MIC ([4]; ATCC27853, read-out: BMD MIC, P. aeruginosa ATCC 27853 control strain, CAMHB, mode of 6 replicates): ≤ 0.25 mg/L
MIC ([4]; ATCC27853, read-out: MIC, broth microdilution, P. aeruginosa ATCC 27853 spontaneous mutant, AA139 selection 4X, plate 1, colony 1, drug-free passage 1): 0.25 mg/L (≈ 0.652 µM)
MIC ([4]; ATCC27853, read-out: MIC, broth microdilution, P. aeruginosa ATCC 27853 spontaneous mutant, AA139 selection 4X, plate 1, colony 1, drug-free passage 5): 0.5 mg/L (≈ 1.3 µM)
MIC ([4]; ATCC27853, read-out: MIC, broth microdilution, P. aeruginosa ATCC 27853 spontaneous mutant, AA139 selection 4X, plate 1, colony 2, drug-free passage 1): 0.5 mg/L (≈ 1.3 µM)
MIC ([4]; ATCC27853, read-out: MIC, broth microdilution, P. aeruginosa ATCC 27853 spontaneous mutant, AA139 selection 4X, plate 1, colony 2, drug-free passage 5): 0.25 mg/L (≈ 0.652 µM)
MIC ([4]; ATCC27853, read-out: MIC, broth microdilution, P. aeruginosa ATCC 27853 spontaneous mutant, AA139 selection 4X, plate 1, colony 3, drug-free passage 1): 1 mg/L (≈ 2.61 µM)
MIC ([4]; ATCC27853, read-out: MIC, broth microdilution, P. aeruginosa ATCC 27853 spontaneous mutant, AA139 selection 4X, plate 1, colony 3, drug-free passage 5): 0.5 mg/L (≈ 1.3 µM)
MIC ([4]; ATCC27853, read-out: MIC, broth microdilution, P. aeruginosa ATCC 27853 spontaneous mutant, AA139 selection 4X, plate 1, colony 4, drug-free passage 1): 1 mg/L (≈ 2.61 µM)
MIC ([4]; ATCC27853, read-out: MIC, broth microdilution, P. aeruginosa ATCC 27853 spontaneous mutant, AA139 selection 4X, plate 1, colony 4, drug-free passage 5): 0.5 mg/L (≈ 1.3 µM)
MIC ([4]; ATCC27853, read-out: MIC, broth microdilution, P. aeruginosa ATCC 27853 spontaneous mutant, AA139 selection 4X, plate 1, colony 5, drug-free passage 1): 0.25 mg/L (≈ 0.652 µM)
MIC ([4]; ATCC27853, read-out: MIC, broth microdilution, P. aeruginosa ATCC 27853 spontaneous mutant, AA139 selection 4X, plate 1, colony 5, drug-free passage 5): 0.5 mg/L (≈ 1.3 µM)
MIC ([4]; ATCC27853, read-out: MIC, broth microdilution, P. aeruginosa ATCC 27853 spontaneous mutant, AA139 selection 4X, plate 1, colony 6, drug-free passage 1): 0.5 mg/L (≈ 1.3 µM)
MIC ([4]; ATCC27853, read-out: MIC, broth microdilution, P. aeruginosa ATCC 27853 spontaneous mutant, AA139 selection 4X, plate 1, colony 6, drug-free passage 5): 0.5 mg/L (≈ 1.3 µM)
MIC ([4]; ATCC27853, read-out: MIC, broth microdilution, P. aeruginosa ATCC 27853 spontaneous mutant, AA139 selection 4X, plate 2, colony 1, drug-free passage 1): 0.25 mg/L (≈ 0.652 µM)
MIC ([4]; ATCC27853, read-out: MIC, broth microdilution, P. aeruginosa ATCC 27853 spontaneous mutant, AA139 selection 4X, plate 2, colony 1, drug-free passage 5): 0.25 mg/L (≈ 0.652 µM)
MIC ([4]; ATCC27853, read-out: MIC, broth microdilution, P. aeruginosa ATCC 27853 spontaneous mutant, AA139 selection 4X, plate 2, colony 2, drug-free passage 1): 0.5 mg/L (≈ 1.3 µM)
MIC ([4]; ATCC27853, read-out: MIC, broth microdilution, P. aeruginosa ATCC 27853 spontaneous mutant, AA139 selection 4X, plate 2, colony 2, drug-free passage 5): 0.25 mg/L (≈ 0.652 µM)
MIC ([4]; ATCC27853, read-out: MIC, broth microdilution, P. aeruginosa ATCC 27853 spontaneous mutant, AA139 selection 4X, plate 2, colony 3, drug-free passage 1): 0.5 mg/L (≈ 1.3 µM)
MIC ([4]; ATCC27853, read-out: MIC, broth microdilution, P. aeruginosa ATCC 27853 spontaneous mutant, AA139 selection 4X, plate 2, colony 3, drug-free passage 5): 0.25 mg/L (≈ 0.652 µM)
MIC ([4]; ATCC27853, read-out: MIC, broth microdilution, P. aeruginosa ATCC 27853 spontaneous mutant, AA139 selection 4X, plate 2, colony 4, drug-free passage 1): 0.5 mg/L (≈ 1.3 µM)
MIC ([4]; ATCC27853, read-out: MIC, broth microdilution, P. aeruginosa ATCC 27853 spontaneous mutant, AA139 selection 4X, plate 2, colony 4, drug-free passage 5): 0.25 mg/L (≈ 0.652 µM)
MIC ([4]; ATCC27853, read-out: MIC, broth microdilution, P. aeruginosa ATCC 27853 spontaneous mutant, AA139 selection 8X, plate 1, colony 1, drug-free passage 1): 0.5 mg/L (≈ 1.3 µM)
MIC ([4]; ATCC27853, read-out: MIC, broth microdilution, P. aeruginosa ATCC 27853 spontaneous mutant, AA139 selection 8X, plate 1, colony 1, drug-free passage 5): 0.5 mg/L (≈ 1.3 µM)
MIC ([4]; ATCC27853, read-out: MIC, broth microdilution, P. aeruginosa ATCC 27853 spontaneous mutant, AA139 selection 8X, plate 1, colony 2, drug-free passage 1): 0.25 mg/L (≈ 0.652 µM)
MIC ([4]; ATCC27853, read-out: MIC, broth microdilution, P. aeruginosa ATCC 27853 spontaneous mutant, AA139 selection 8X, plate 1, colony 2, drug-free passage 5): 0.5 mg/L (≈ 1.3 µM)
MIC ([4]; ATCC27853, read-out: MIC, broth microdilution, P. aeruginosa ATCC 27853 spontaneous mutant, AA139 selection 8X, plate 1, colony 3, drug-free passage 1): 0.25 mg/L (≈ 0.652 µM)
MIC ([4]; ATCC27853, read-out: MIC, broth microdilution, P. aeruginosa ATCC 27853 spontaneous mutant, AA139 selection 8X, plate 1, colony 3, drug-free passage 5): 0.25 mg/L (≈ 0.652 µM)
MIC ([4]; ATCC27853, read-out: MIC, broth microdilution, P. aeruginosa ATCC 27853 spontaneous mutant, AA139 selection 8X, plate 1, colony 4, drug-free passage 1): 0.5 mg/L (≈ 1.3 µM)
MIC ([4]; ATCC27853, read-out: MIC, broth microdilution, P. aeruginosa ATCC 27853 spontaneous mutant, AA139 selection 8X, plate 1, colony 4, drug-free passage 5): 0.5 mg/L (≈ 1.3 µM)
MIC ([4]; ATCC27853, read-out: MIC, broth microdilution, P. aeruginosa ATCC 27853 spontaneous mutant, AA139 selection 8X, plate 1, colony 5, drug-free passage 1): 0.5 mg/L (≈ 1.3 µM)
MIC ([4]; ATCC27853, read-out: MIC, broth microdilution, P. aeruginosa ATCC 27853 spontaneous mutant, AA139 selection 8X, plate 1, colony 5, drug-free passage 5): 0.25 mg/L (≈ 0.652 µM)
MIC ([4]; read-out: BMD MIC, P. aeruginosa FADDI-070, MDR, PmxR, MHB/CAMHB, mode of 6 replicates): 1 mg/L (≈ 2.61 µM)
MIC ([4]; read-out: MIC, broth microdilution, P. aeruginosa UNT 138-1 spontaneous mutant, AA139 selection 4X, plate 1, colony 1, drug-free passage 1): 0.12 mg/L (≈ 0.313 µM)
MIC ([4]; read-out: MIC, broth microdilution, P. aeruginosa UNT 138-1 spontaneous mutant, AA139 selection 4X, plate 1, colony 1, drug-free passage 5): 0.12 mg/L (≈ 0.313 µM)
MIC ([4]; read-out: MIC, broth microdilution, P. aeruginosa UNT 138-1 spontaneous mutant, AA139 selection 4X, plate 1, colony 2, drug-free passage 1): 0.12 mg/L (≈ 0.313 µM)
MIC ([4]; read-out: MIC, broth microdilution, P. aeruginosa UNT 138-1 spontaneous mutant, AA139 selection 4X, plate 1, colony 2, drug-free passage 5): 0.25 mg/L (≈ 0.652 µM)
